Results as given in patent US10676446B2, “Bicyclic quinazolinone derivatives” (Hoffmann-La Roche Inc., priority 2015, dated 2020).

The compounds below were run against human ATX (autotaxin, ENPP2), His-tagged (Homo sapiens (Human), UniProt Q13822) (assay: Human ATX enzyme inhibition assay (fluorescence quenching, MR121 substrate)). Conditions: 30 nM ATX, 1 μM MR121 substrate, 30° C., pH 8.0.
Format: biochemical
Experimental: Human ATX Enzyme Inhibition Assay
ATX inhibition was measured by a fluorescence quenching assay using a specifically labeled substrate analogue (MR121 substrate). To obtain this MR121 substrate, BOC and TBS protected 6-amino-hexanoic acid (R)-3-({2-[3-(2-{2-[2-(2-amino-ethoxy)-ethoxy]-ethoxy}-ethoxy)-propionylamino]-ethoxy}-hydroxy-phosphoryloxy)-2-hydroxy-propyl ester (Ferguson et al., Org. Lett. 2006, 8, 2023) was labeled with MR121 fluorophore [CAS RN 185308-24-1], 1-(3-carboxypropyl)-11-ethyl-1,2,3,4,8,9,10,11-octahydro-dipyrido[3,2-b:2′,3′-i]phenoxazin-13-ium) on the free amine of the ethanolamine side and then, after deprotection, subsequently with tryptophan on the side of the aminohexanoic acid.
Assay working solutions were made as follows:
Assay buffer (50 mM Tris-HCl, 140 mM NaCl, 5 mM KCl, 1 mM CaCl2, 1 mM MgCl2, 0.01% Triton-X-100, pH 8.0;
ATX solution: ATX (human His-tagged) stock solution (1.08 mg/mL in 20 mM bicine, pH 8.5, 0.15 M NaCl, 10% glycerol, 0.3% CHAPS, 0.02% NaN3), diluted to 1.4-2.5× final concentration in assay buffer;
MR121 substrate solution: MR121 substrate stock solution (800 μM MR121 substrate in DMSO), diluted to 2-5× final concentration in assay buffer.
Test compounds (10 mM stock in DMSO, 8 μL) were obtained in 384 well sample plates (Corning Costar #3655) and diluted with 8 μL DMSO. Row-wise serial dilutions were made by transferring 8 μL cpd solution to the next row up to row O. The compound and control solutions were mixed five times and 2 μL were transferred to 384 well assay plates (Corning Costar #3702). Then, 15 μL of 41.7 nM ATX solution was added (30 nM final concentration), mixed five times and then incubated for 15 minutes at 30° C. 10 μL of MR121 substrate solution was added (1 μM final concentration), mixed 30 times and then incubated for 15 minutes at 30° C.

SMILES	IC50 [µM]
CNC(=O)C[C@@H](NC(=O)Cn1cnc2ccc(N3CCN(C(C)=O)CC3)cc2c1=O)c1ccc(Cl)cc1 [Example 1, (3R)-3-[[2-[6-(4-Acetylpiperazin-1-yl)-4-oxoquinazolin-3-yl]acetyl]amino]-3-(4-chlorophenyl)-N-methylpropanamide]	0.269
CC(=O)N1CCN(c2ccc3ncn(CC(=O)NC(CC(=O)N(C)C)c4ccc(Cl)cc4)c(=O)c3c2)CC1 (stereo not drawn) [Example 2]	0.36
CC(=O)N1CCN(c2ccc3ncn(CC(=O)NC(CC(=O)Nc4ccccc4)c4ccc(Cl)cc4)c(=O)c3c2)CC1 (stereo not drawn) [Example 3]	0.198
CNC(=O)CC(NC(=O)Cn1cnc2ccc(N3CCN(C(C)=O)CC3)cc2c1=O)c1ccc(C(F)(F)F)cc1 (stereo not drawn) [Example 4]	0.17
CC(=O)N1CCN(c2ccc3ncn(CC(=O)NC(CC(=O)N(C)C)c4ccc(C(F)(F)F)cc4)c(=O)c3c2)CC1 (stereo not drawn) [Example 5]	0.121
CC(=O)N1CCN(c2ccc3ncn(CC(=O)NC(CC(=O)NCC(C)C)c4ccc(C(F)(F)F)cc4)c(=O)c3c2)CC1 (stereo not drawn) [Example 6]	0.979
CC(=O)N1CCN(c2ccc3ncn(CC(=O)NC(CC(=O)Nc4ccccc4)c4ccc(C(F)(F)F)cc4)c(=O)c3c2)CC1 (stereo not drawn) [Example 7]	0.084
CC(=O)N1CCN(c2ccc3ncn(CC(=O)NC(CC(=O)NCc4ccccc4)c4ccc(C(F)(F)F)cc4)c(=O)c3c2)CC1 (stereo not drawn) [Example 8]	0.279
CNC(=O)C[C@@H](NC(=O)Cn1cnc2ccc(N3CCN(C(C)=O)CC3)cc2c1=O)c1ccc([N+](=O)[O-])cc1 [Example 9, (3R)-3-[[2-[6-(4-Acetylpiperazin-1-yl)-4-oxoquinazolin-3-yl]acetyl]amino]-N-methyl-3-(4-nitrophenyl)propanamide]	0.054
CC(=O)N1CCN(c2ccc3ncn(CC(=O)NCc4ccc(Cl)cc4)c(=O)c3c2)CC1 [Example 10, 2-[6-(4-Acetylpiperazin-1-yl)-4-oxoquinazolin-3-yl]-N-[(4-chlorophenyl)methyl]acetamide]	0.096
CC(=O)N1CCN(c2ccc3ncn(CC(=O)NCc4ccc(Cl)nc4)c(=O)c3c2)CC1 [Example 11]	0.119
CC(=O)N1CCN(c2ccc3ncn(CC(=O)NCc4ccc(Cl)cn4)c(=O)c3c2)CC1 [Example 12]	0.148
CC(=O)N1CCN(c2ccc3ncn(CC(=O)NC(C)c4ccc(Cl)cc4)c(=O)c3c2)CC1 (stereo not drawn) [Example 13]	0.478
CC(=O)N1CCN(c2ccc3ncn(CC(=O)NCc4ccc(F)cc4)c(=O)c3c2)CC1 [Example 14]	1.47
CC(=O)N1CCN(c2ccc3ncn(CC(=O)NCc4ccc5c(c4)OCO5)c(=O)c3c2)CC1 [Example 15]	0.415
CC(=O)N1CCN(c2ccc3ncn(CC(=O)NCc4ccc(C(F)(F)F)nc4)c(=O)c3c2)CC1 [Example 16]	0.207
CC(=O)N1CCN(c2ccc3ncn(CC(=O)NCc4ccc(C(F)(F)F)cc4)c(=O)c3c2)CC1 [Example 17]	0.137
CC(=O)N1CCN(c2ccc3ncn(CC(=O)NCc4ccc(C#N)nc4)c(=O)c3c2)CC1 [Example 18]	0.014
CC(=O)N1CCN(c2ccc3ncn(CC(=O)NCc4ccc(C#N)cc4)c(=O)c3c2)CC1 [Example 19]	0.13
CC(=O)N1CCN(c2ccc3ncn(CC(=O)NCc4ccc(OC(F)(F)F)cc4)c(=O)c3c2)CC1 [Example 20]	0.005
CC(=O)N1CCN(c2ccc3ncn(CC(=O)NCc4ccc([N+](=O)[O-])cc4)c(=O)c3c2)CC1 [Example 21]	0.052
CC(=O)N1CCN(c2ccc3ncn(CC(=O)NCc4ccc(Cl)c(Cl)c4)c(=O)c3c2)CC1 [Example 22]	0.091
CC(=O)N1CCN(c2ccc3ncn(CC(=O)NCc4ccc(Cl)cc4Cl)c(=O)c3c2)CC1 [Example 23]	0.072
CC(=O)N1CCN(c2ccc3ncn(CC(=O)NCc4ccc(Cl)c(F)c4)c(=O)c3c2)CC1 [Example 24]	0.033
CC(=O)N1CCN(c2ccc3ncn(CC(=O)NCc4ccc(C#N)c(Cl)c4)c(=O)c3c2)CC1 [Example 25]	0.016
CC(=O)N1CCN(c2ccc3ncn(CC(=O)NCc4ccc(F)c(OC(F)(F)F)c4)c(=O)c3c2)CC1 [Example 26]	0.051
CC(=O)N1CCN(c2ccc3ncn(CC(=O)N[C@H](CC(N)=O)c4ccc(Cl)cc4)c(=O)c3c2)CC1 [Example 27]	0.34

SMILES	IC50 [µM]
CC(=O)N1CCN(c2ccc3ncn(CC(=O)NCc4ccc(C#N)c(F)c4)c(=O)c3c2)CC1 [Example 28, 2-[6-(4-Acetylpiperazin-1-yl)-4-oxoquinazolin-3-yl]-N-[(4-cyano-3-fluorophenyl)methyl]acetamide]	0.027
CC(=O)N1CCN(c2ccc3ncn(CC(=O)NCc4ccc(C#N)cc4Cl)c(=O)c3c2)CC1 [Example 29]	0.175
CC(=O)N1CCN(c2ccc3ncn(CC(=O)NCc4ccc(C#N)cc4F)c(=O)c3c2)CC1 [Example 30]	0.139
CC(=O)N1CCN(c2ccc3ncn(CC(=O)NCc4c(F)cc(C#N)cc4F)c(=O)c3c2)CC1 [Example 31]	0.331
COc1cc(C#N)ccc1CNC(=O)Cn1cnc2ccc(N3CCN(C(C)=O)CC3)cc2c1=O [Example 32]	0.089
CC(=O)N1CCN(c2ccc3ncn(CC(=O)NCc4ccc(C#N)cc4OCC(F)(F)F)c(=O)c3c2)CC1 [Example 33]	0.245
CC(=O)N1CCN(c2ccc3ncn(CC(=O)NCc4ccc(Cl)c(C(F)(F)F)c4)c(=O)c3c2)CC1 [Example 34]	0.024
CC(=O)N1CCN(c2ccc3ncn(CC(=O)NCc4cccc(C#N)c4C)c(=O)c3c2)CC1 [Example 35]	0.071
CC(=O)N1CCN(c2ccc3ncn(CC(=O)NCc4ccnc(Cl)c4)c(=O)c3c2)CC1 [Example 36]	0.346
CC(=O)N1CCN(c2ccc3ncn(CC(=O)NCc4cccc([N+](=O)[O-])c4)c(=O)c3c2)CC1 [Example 37]	0.073
CC(=O)N1CCN(c2ccc3ncn(CC(=O)NCc4ccc(Cl)c(OC(F)(F)F)c4)c(=O)c3c2)CC1 [Example 38]	0.004
CC(=O)N1CCN(c2ccc3ncn(CC(=O)NCc4ccc(S(F)(F)(F)(F)F)cc4)c(=O)c3c2)CC1 [Example 39]	0.012
CC(=O)N1CCN(c2ccc3ncn(CC(=O)NCc4ccc(S(C)(=O)=O)c(C)c4)c(=O)c3c2)CC1 [Example 40]	1.56
CC(=O)N1CCN(c2ccc3ncn(CC(=O)NCc4cc(Cl)c(Cl)cn4)c(=O)c3c2)CC1 [Example 41]	0.021
CC(=O)N1CCN(c2ccc3ncn(CC(=O)NCc4ccc(C)c(Cl)c4)c(=O)c3c2)CC1 [Example 42]	0.14
CC(=O)N1CCN(c2ccc3ncn(CC(=O)N(C)Cc4ccc(Cl)cc4)c(=O)c3c2)CC1 [Example 43]	0.112
CC(=O)N1CCN(c2ccc3ncn(CC(=O)N(C)Cc4ccc(Cl)c(Cl)c4)c(=O)c3c2)CC1 [Example 44]	0.017
CC(=O)N1CCN(c2ccc3ncn(CC(=O)N(C)Cc4ccc(C#N)c(F)c4)c(=O)c3c2)CC1 [Example 45]	0.038
CC(=O)N1CCN(c2ccc3ncn(CC(=O)N(C)Cc4cc(Cl)nc(Cl)c4)c(=O)c3c2)CC1 [Example 46]	0.184
CC(=O)N1CCN(c2ccc3ncn(CC(=O)N4CCCC4c4ccc(Cl)cc4)c(=O)c3c2)CC1 (stereo not drawn) [Example 47]	0.341
CC(=O)N1CCN(c2ccc3ncn(CC(=O)N4CCC[C@@H]4c4ccc(C)cc4)c(=O)c3c2)CC1 [Example 48]	1.58
CC(=O)N1CCN(c2ccc3ncn(CC(=O)NCCc4ccc(Cl)c(Cl)c4)c(=O)c3c2)CC1 [Example 49]	0.179
CC(=O)N1CCN(c2ccc3ncn(CC(=O)NCc4cc(-c5ccc(Cl)cc5)no4)c(=O)c3c2)CC1 [Example 50]	0.456
CC(=O)N1CCN(c2ccc3ncn(CC(=O)NCc4noc(-c5ccc(Cl)cc5)n4)c(=O)c3c2)CC1 [Example 51]	0.051
CNC(=O)CC(NC(=O)Cn1cnc2ccc(N3CCN(C(C)=O)CC3)cc2c1=O)c1ccc(Cl)c(Cl)c1 (stereo not drawn) [Example 52, 3-[[2-[6-(4-Acetylpiperazin-1-yl)-4-oxoquinazolin-3-yl]acetyl]amino]-3-(3,4-dichlorophenyl)-N-methylpropanamide]	0.072
COC(=O)CCN(Cc1ccc(Cl)c(Cl)c1)C(=O)Cn1cnc2ccc(N3CCN(C(C)=O)CC3)cc2c1=O [Example 53, Methyl 3-[[2-[6-(4-acetylpiperazin-1-yl)-4-oxoquinazolin-3-yl]acetyl]-[(3,4-dichlorophenyl)methyl]amino]propanoate]	0.018
CC(=O)N1CCN(c2ccc3ncn(CC(=O)N(CCC(=O)O)Cc4ccc(Cl)c(Cl)c4)c(=O)c3c2)CC1 [Example 54, 3-[[2-[6-(4-Acetylpiperazin-1-yl)-4-oxoquinazolin-3-yl]acetyl]-[(3,4-dichlorophenyl)methyl]amino]propanoic acid]	0.831
